In PMC5218480 (PLoS ONE, 2017):

Tested on: MV-4-11 cells
Assay: Gene expression microarray analysis (Affymetrix PrimeView) and GSEA
Assay type: cell-based, human
Parameters: RFU PODN (11730768_x_at) / Fold change /veh PODN (11730768_x_at) / RFU LINC00158 (11744669_a_at) / Fold change /veh LINC00158 (11744669_a_at) / RFU DUSP10 (11751237_a_at) / Fold change /veh DUSP10 (11751237_a_at) / RFU ID3 (11757404_x_at) / Fold change /veh ID3 (11757404_x_at) / RFU PLEKHG5 (11737974_s_at) / Fold change /veh PLEKHG5 (11737974_s_at) / RFU LRRC4B (11730491_at) / Fold change /veh LRRC4B (11730491_at) / RFU GIMAP4 (11747438_a_at) / Fold change /veh GIMAP4 (11747438_a_at) / RFU KRT8 (11758183_x_at) / Fold change /veh KRT8 (11758183_x_at) / RFU CNN1 (11734310_a_at) / Fold change /veh CNN1 (11734310_a_at) / RFU VPS37D (11726825_at) / Fold change /veh VPS37D (11726825_at) / RFU C10orf10 (11716522_x_at) / Fold change /veh C10orf10 (11716522_x_at) / RFU KIR2DL2 /// KIR2DL4 /// KIR2DL5A /// KIR2DL5B /// KIR2DS1 /// KIR2DS2 /// KIR2DS3 /// KIR2DS4 /// KIR3DL3 /// KIR3DL3 /// KIR3DS1 (11738374_at) / Fold change /veh KIR2DL2 /// KIR2DL4 /// KIR2DL5A /// KIR2DL5B /// KIR2DS1 /// KIR2DS2 /// KIR2DS3 /// KIR2DS4 /// KIR3DL3 /// KIR3DL3 /// KIR3DS1 (11738374_at) / RFU C1QL1 (11718748_at) / Fold change /veh C1QL1 (11718748_at) / RFU TMPRSS4 (11747572_a_at) / Fold change /veh TMPRSS4 (11747572_a_at) / RFU HAMP (11756126_x_at) / Fold change /veh HAMP (11756126_x_at) / RFU RNFT2 (11725882_a_at) / Fold change /veh RNFT2 (11725882_a_at) / RFU NR4A2 (11747474_a_at) / Fold change /veh NR4A2 (11747474_a_at) / RFU ABCC12 (11746883_a_at) / Fold change /veh ABCC12 (11746883_a_at) / RFU TMEM136 (11760407_x_at) / Fold change /veh TMEM136 (11760407_x_at) / RFU CLDN22 /// WWC2 (11732394_at) / Fold change /veh CLDN22 /// WWC2 (11732394_at) / RFU HLA-DPB1 (11760878_x_at) / Fold change /veh HLA-DPB1 (11760878_x_at) / RFU SPINT1 (11716480_a_at) / Fold change /veh SPINT1 (11716480_a_at) / RFU GAP43 (11754022_s_at) / Fold change /veh GAP43 (11754022_s_at) / RFU A4GNT (11735810_at) / Fold change /veh A4GNT (11735810_at) / RFU PRB3 (11715151_x_at) / Fold change /veh PRB3 (11715151_x_at) / RFU TUBB4B (11761932_at) / Fold change /veh TUBB4B (11761932_at) / RFU CAPN14 (11732068_a_at) / Fold change /veh CAPN14 (11732068_a_at) / RFU TMCC2 (11721928_a_at) / Fold change /veh TMCC2 (11721928_a_at) / RFU IRGQ (11745062_a_at) / Fold change /veh IRGQ (11745062_a_at) / RFU FAM174B (11720279_a_at) / Fold change /veh FAM174B (11720279_a_at) / RFU TMPRSS4 (11748680_a_at) / Fold change /veh TMPRSS4 (11748680_a_at) / RFU FAM212B (11763350_a_at) / Fold change /veh FAM212B (11763350_a_at) / RFU PLEKHG5 (11743358_a_at) / Fold change /veh PLEKHG5 (11743358_a_at) / RFU ZSCAN30 (11745921_a_at) / Fold change /veh ZSCAN30 (11745921_a_at) / RFU CMKLR1 (11741424_a_at) / Fold change /veh CMKLR1 (11741424_a_at) / RFU LOC101060620 /// MAPK8IP1 (11723275_at) / Fold change /veh LOC101060620 /// MAPK8IP1 (11723275_at) / RFU SPTSSB (11747773_x_at) / Fold change /veh SPTSSB (11747773_x_at) / RFU PRSS12 (11739890_at) / Fold change /veh PRSS12 (11739890_at) / RFU BIN1 (11741810_x_at) / Fold change /veh BIN1 (11741810_x_at) / RFU WNT11 (11732464_a_at) / Fold change /veh WNT11 (11732464_a_at) / RFU C10orf10 (11716521_a_at) / Fold change /veh C10orf10 (11716521_a_at) / RFU C5orf56 (11738089_at) / Fold change /veh C5orf56 (11738089_at) / RFU CYB561 (11721691_x_at) / Fold change /veh CYB561 (11721691_x_at) / RFU ANKRD19P (11752326_a_at) / Fold change /veh ANKRD19P (11752326_a_at) / RFU OR2T12 /// OR2T33 /// OR2T8 (11738714_s_at) / Fold change /veh OR2T12 /// OR2T33 /// OR2T8 (11738714_s_at) / RFU VCAN (11748164_a_at) / Fold change /veh VCAN (11748164_a_at) / RFU JSRP1 (11732532_at) / Fold change /veh JSRP1 (11732532_at) / RFU KRTAP10-11 (11738290_x_at) / Fold change /veh KRTAP10-11 (11738290_x_at) / RFU MYO3A (11730013_a_at) / Fold change /veh MYO3A (11730013_a_at) / RFU EBF3 (11725865_a_at) / Fold change /veh EBF3 (11725865_a_at) / RFU CAMK2N1 (11719241_x_at) / Fold change /veh CAMK2N1 (11719241_x_at) / RFU C5orf56 (11738088_a_at) / Fold change /veh C5orf56 (11738088_a_at) / RFU OLFML3 (11715873_a_at) / Fold change /veh OLFML3 (11715873_a_at) / RFU LOC100653217 /// NTM (11731650_a_at) / Fold change /veh LOC100653217 /// NTM (11731650_a_at) / RFU MAPK11 (11762145_a_at) / Fold change /veh MAPK11 (11762145_a_at) / RFU FIZ1 (11724087_x_at) / Fold change /veh FIZ1 (11724087_x_at) / RFU OASL (11726364_x_at) / Fold change /veh OASL (11726364_x_at) / RFU SOX15 (11748057_x_at) / Fold change /veh SOX15 (11748057_x_at) / RFU CD79A (11719716_a_at) / Fold change /veh CD79A (11719716_a_at) / RFU HIST1H1D (11736915_at) / Fold change /veh HIST1H1D (11736915_at) / RFU CASKIN2 (11723855_a_at) / Fold change /veh CASKIN2 (11723855_a_at) / RFU LOC730098 (11760151_x_at) / Fold change /veh LOC730098 (11760151_x_at) / RFU OR4N2 (11742367_at) / Fold change /veh OR4N2 (11742367_at) / RFU PRRT2 (11749266_a_at) / Fold change /veh PRRT2 (11749266_a_at) / RFU SNX32 (11753110_a_at) / Fold change /veh SNX32 (11753110_a_at) / RFU CDHR5 (11726645_a_at) / Fold change /veh CDHR5 (11726645_a_at) / RFU RCAN1 (11760418_a_at) / Fold change /veh RCAN1 (11760418_a_at) / RFU FAM167A (11723789_a_at) / Fold change /veh FAM167A (11723789_a_at) / RFU FAM26E (11764081_at) / Fold change /veh FAM26E (11764081_at) / RFU ISYNA1 (11749810_s_at) / Fold change /veh ISYNA1 (11749810_s_at) / RFU ACY1 (11761880_at) / Fold change /veh ACY1 (11761880_at) / RFU 11764098_at / Fold change /veh 11764098_at / RFU SAMD14 (11745864_x_at) / Fold change /veh SAMD14 (11745864_x_at) / RFU NPB (11741838_a_at) / Fold change /veh NPB (11741838_a_at) / RFU TMPRSS6 (11731388_a_at) / Fold change /veh TMPRSS6 (11731388_a_at) / RFU KRTAP10-2 (11738614_at) / Fold change /veh KRTAP10-2 (11738614_at) / RFU ARHGAP8 /// PRR5-ARHGAP8 (11727945_x_at) / Fold change /veh ARHGAP8 /// PRR5-ARHGAP8 (11727945_x_at) / RFU KRTAP5-7 /// NADSYN1 (11734609_at) / Fold change /veh KRTAP5-7 /// NADSYN1 (11734609_at) / RFU RASL12 (11751679_a_at) / Fold change /veh RASL12 (11751679_a_at) / RFU CDKN2B (11736163_a_at) / Fold change /veh CDKN2B (11736163_a_at) / RFU PRF1 (11729649_at) / Fold change /veh PRF1 (11729649_at) / RFU, ZNF638 /// ZNF638-IT1 / Fold change vs veh, ZNF638 /// ZNF638-IT1 / RFU, PANK3 / Fold change vs veh, PANK3 / RFU, SH3YL1 / Fold change vs veh, SH3YL1 / RFU, ZEB2 / Fold change vs veh, ZEB2 / RFU, NRIP1 / Fold change vs veh, NRIP1 / RFU, PTTG1IP / Fold change vs veh, PTTG1IP / RFU, CAPN2 / Fold change vs veh, CAPN2 / RFU, MED14 / Fold change vs veh, MED14 / RFU, SNORA58 / Fold change vs veh, SNORA58 / RFU, C1orf63 / Fold change vs veh, C1orf63 / RFU, LRRFIP1 / Fold change vs veh, LRRFIP1 / RFU, NDUFAF7 / Fold change vs veh, NDUFAF7 / RFU, SLC12A2 / Fold change vs veh, SLC12A2 / RFU, IBTK / Fold change vs veh, IBTK / RFU, ESF1 / Fold change vs veh, ESF1 / Fold change vs veh, TMEM50B / RFU, TAOK1 / Fold change vs veh, TAOK1 / RFU, ACBD3 / Fold change vs veh, ACBD3 / RFU, TMA16 / Fold change vs veh, TMA16 / RFU, RWDD3 / Fold change vs veh, RWDD3 / RFU, BCAT1 / Fold change vs veh, BCAT1 / RFU, EDEM3 / Fold change vs veh, EDEM3 / RFU, TMEM33 / Fold change vs veh, TMEM33 / RFU, WDR75 / Fold change vs veh, WDR75 / RFU, AHCTF1 / Fold change vs veh, AHCTF1 / RFU, TFRC / Fold change vs veh, TFRC / RFU, ZDHHC17 / Fold change vs veh, ZDHHC17 / RFU, NOM1 / Fold change vs veh, NOM1 / RFU, ARL8B / Fold change vs veh, ARL8B / RFU, ZBTB11 / Fold change vs veh, ZBTB11 / RFU, TAMM41 / Fold change vs veh, TAMM41 / RFU, KIAA1704 /// LOC100996395 / Fold change vs veh, KIAA1704 /// LOC100996395 / RFU, ING1 / Fold change vs veh, ING1 / RFU, TRMT61B / Fold change vs veh, TRMT61B / RFU, FUBP3 / Fold change vs veh, FUBP3 / RFU, TP53 / Fold change vs veh, TP53 / RFU, TNKS2 / Fold change vs veh, TNKS2 / RFU, ZFP14 / Fold change vs veh, ZFP14 / RFU, ACTR2 / Fold change vs veh, ACTR2 / RFU, PPP3R1 / Fold change vs veh, PPP3R1 / RFU, PIK3R1 / Fold change vs veh, PIK3R1 / RFU, HNRNPA1 / Fold change vs veh, HNRNPA1 / RFU, RNF170 / Fold change vs veh, RNF170 / RFU, ZNF28 / Fold change vs veh, ZNF28 / RFU, RNGTT / Fold change vs veh, RNGTT / RFU, OGT / Fold change vs veh, OGT / RFU, BRD1 / Fold change vs veh, BRD1 / RFU, MARS / Fold change vs veh, MARS / RFU, ZNF655 / Fold change vs veh, ZNF655 / RFU, FAHD1 / Fold change vs veh, FAHD1 / RFU, BDP1 / Fold change vs veh, BDP1 / RFU, LRRCC1 / Fold change vs veh, LRRCC1 / RFU, ARID1A / Fold change vs veh, ARID1A / RFU, ZNF146 / Fold change vs veh, ZNF146 / RFU, ZNF330 / Fold change vs veh, ZNF330 / RFU, GPN3 / Fold change vs veh, GPN3 / RFU, C9orf123 / Fold change vs veh, C9orf123 / RFU, N4BP2L2 / Fold change vs veh, N4BP2L2 / RFU, ARFIP1 / Fold change vs veh, ARFIP1 / RFU, FAM179B / Fold change vs veh, FAM179B / RFU, BCL10 / Fold change vs veh, BCL10 / RFU, UHRF1BP1L / Fold change vs veh, UHRF1BP1L / RFU, BET1 / Fold change vs veh, BET1 / RFU, CNOT2 / Fold change vs veh, CNOT2 / RFU, ZNF268 / Fold change vs veh, ZNF268 / Fold change vs veh, ZNF507 / RFU, DGCR2 / Fold change vs veh, DGCR2 / RFU, WDSUB1 / Fold change vs veh, WDSUB1 / Fold change vs veh, HSP90B1 /// MIR3652 / RFU, ADSS / Fold change vs veh, ADSS / RFU, GK / Fold change vs veh, GK / RFU, ZNF148 / Fold change vs veh, ZNF148 / RFU, TAF9 / Fold change vs veh, TAF9 / RFU, SLC1A5 / Fold change vs veh, SLC1A5 / RFU, SLMO2 / Fold change vs veh, SLMO2 / RFU, ABCC4 / Fold change vs veh, ABCC4 / RFU, LOC101060439 /// RAP1B / Fold change vs veh, LOC101060439 /// RAP1B / RFU, RFX7 / Fold change vs veh, RFX7 / RFU, GTPBP10 / Fold change vs veh, GTPBP10 / RFU, CNEP1R1 / Fold change vs veh, CNEP1R1 / RFU, BIVM-ERCC5 /// ERCC5 / Fold change vs veh, BIVM-ERCC5 /// ERCC5 / RFU, ILF3 / Fold change vs veh, ILF3 / RFU 11762660_at / Fold change /veh 11762660_at / RFU VCAN (11757783_s_at) / Fold change /veh VCAN (11757783_s_at) / RFU DDX43 (11728927_at) / Fold change /veh DDX43 (11728927_at) / RFU KRT8 (11758188_x_at) / Fold change /veh KRT8 (11758188_x_at) / RFU NKD1 (11759106_at) / Fold change /veh NKD1 (11759106_at) / RFU SRD5A1 (11742802_a_at) / Fold change /veh SRD5A1 (11742802_a_at) / RFU TPSAB1 /// TPSB2 (11721975_s_at) / Fold change /veh TPSAB1 /// TPSB2 (11721975_s_at) / RFU GSTM3 (11746129_a_at) / Fold change /veh GSTM3 (11746129_a_at) / RFU IL23R (11737362_x_at) / Fold change /veh IL23R (11737362_x_at) / RFU TMEM51 (11727254_a_at) / Fold change /veh TMEM51 (11727254_a_at) / RFU PIWIL2 (11732686_x_at) / Fold change /veh PIWIL2 (11732686_x_at) / RFU ORM1 (11744905_x_at) / Fold change /veh ORM1 (11744905_x_at) / RFU CCDC152 (11743942_at) / Fold change /veh CCDC152 (11743942_at) / RFU ECM1 (11717891_a_at) / Fold change /veh ECM1 (11717891_a_at) / RFU IL23R (11748794_a_at) / Fold change /veh IL23R (11748794_a_at) / RFU TNFAIP8L3 (11732012_x_at) / Fold change /veh TNFAIP8L3 (11732012_x_at) / RFU MBOAT4 (11741988_at) / Fold change /veh MBOAT4 (11741988_at) / RFU 11764193_at / Fold change /veh 11764193_at / RFU TMEM53 (11763286_at) / Fold change /veh TMEM53 (11763286_at) / RFU MAGEB2 (11727129_at) / Fold change /veh MAGEB2 (11727129_at) / RFU TMEM200A (11744735_a_at) / Fold change /veh TMEM200A (11744735_a_at) / RFU CCDC152 (11751479_a_at) / Fold change /veh CCDC152 (11751479_a_at) / RFU FAM211A (11726209_a_at) / Fold change /veh FAM211A (11726209_a_at) / RFU RGS16 (11746705_a_at) / Fold change /veh RGS16 (11746705_a_at) / RFU VCAN (11755009_s_at) / Fold change /veh VCAN (11755009_s_at) / RFU RHOB (11743442_s_at) / Fold change /veh RHOB (11743442_s_at) / RFU RGS16 (11720943_a_at) / Fold change /veh RGS16 (11720943_a_at) / RFU RGS16 (11720944_at) / Fold change /veh RGS16 (11720944_at) / RFU, VPS4B / Fold change vs veh, VPS4B / RFU, CREB1 / Fold change vs veh, CREB1 / RFU, DNAJC13 / Fold change vs veh, DNAJC13 / RFU, GNAQ / Fold change vs veh, GNAQ / RFU, CDK5R1 / Fold change vs veh, CDK5R1 / RFU, ZRANB3 / Fold change vs veh, ZRANB3 / RFU, CUL4A / Fold change vs veh, CUL4A / RFU, CCNY / Fold change vs veh, CCNY / RFU, UFL1 / Fold change vs veh, UFL1 / RFU, COG3 / Fold change vs veh, COG3 / RFU, DIAPH2 / Fold change vs veh, DIAPH2 / RFU, SKA2 / Fold change vs veh, SKA2 / RFU, AFF3 / Fold change vs veh, AFF3 / RFU, LMF1 / Fold change vs veh, LMF1 / RFU, IPO11 / Fold change vs veh, IPO11 / RFU, DFFB / Fold change vs veh, DFFB / RFU, FOXP1 / Fold change vs veh, FOXP1 / RFU, CARD8 / Fold change vs veh, CARD8 / RFU, STRN3 / Fold change vs veh, STRN3 / RFU, ADK / Fold change vs veh, ADK / RFU, RASSF2 / Fold change vs veh, RASSF2 / RFU, WIPF1 / Fold change vs veh, WIPF1 / RFU, LARP1B / Fold change vs veh, LARP1B / RFU, RASA1 / Fold change vs veh, RASA1 / RFU, RB1 / Fold change vs veh, RB1 / RFU, PPFIA1 / Fold change vs veh, PPFIA1 / RFU, MAT2A / Fold change vs veh, MAT2A / RFU, CCT5 / Fold change vs veh, CCT5 / RFU, WDR92 / Fold change vs veh, WDR92 / RFU, CUX1 / Fold change vs veh, CUX1 / RFU, TTC7A / Fold change vs veh, TTC7A / RFU, TMEM135 / Fold change vs veh, TMEM135 / RFU, DEPTOR / Fold change vs veh, DEPTOR / RFU, CPM / Fold change vs veh, CPM / RFU, DNAJB6 / Fold change vs veh, DNAJB6 / RFU, CACNA2D3 / Fold change vs veh, CACNA2D3 / RFU, DTX4 / Fold change vs veh, DTX4 / RFU, TFCP2 / Fold change vs veh, TFCP2 / RFU, GMCL1 /// GMCL1P1 / Fold change vs veh, GMCL1 /// GMCL1P1 / RFU, AEBP2 / Fold change vs veh, AEBP2 / RFU, SNHG1 /// SNORD22 /// SNORD25 /// SNORD26 /// SNORD27 /// SNORD28 /// SNORD29 /// SNORD31 / Fold change vs veh, SNHG1 /// SNORD22 /// SNORD25 /// SNORD26 /// SNORD27 /// SNORD28 /// SNORD29 /// SNORD31 / Fold change (Aza/veh), C12orf56 (ProbeSet 11735607_a_at) / Fold change (ACY-1035/veh), C12orf56 (ProbeSet 11735607_a_at) / Fold change (Aza/veh), FGFR1OP (ProbeSet 11751329_s_at) / Fold change (ACY-1035/veh), FGFR1OP (ProbeSet 11751329_s_at) / Fold change (Aza/veh), VPS36 (ProbeSet 11739960_a_at) / Fold change (ACY-1035/veh), VPS36 (ProbeSet 11739960_a_at) / RFU SYPL1 (11715823_x_at) / Fold change /veh SYPL1 (11715823_x_at) / RFU IGFBP7 (11715501_s_at) / Fold change /veh IGFBP7 (11715501_s_at) / RFU REEP3 (11722064_at) / Fold change /veh REEP3 (11722064_at) / RFU IGLL1 (11728026_x_at) / Fold change /veh IGLL1 (11728026_x_at): dose or concentration left out as unconfirmed
Conditions: MV-4-11 cells, 48 hours

## Nc1ccc(-c2cccs2)cc1NC(=O)c1ccc2c(c1)cc(C1CC1)n2CCN1CCOCC1 [ACY-1035]
  RFU FAM211A (11726209_a_at): 5.89 RFU
